Measured values as given in patent US11167015B2, “Arginine and its use as a T cell modulator” (INSTITUTE FOR RESEARCH IN BIOMEDICINE, priority 2016, dated 2021).

Experiments:
[1] = system: human naïve CD4+ T cells; assay: kinetic metabolome analysis of activated T cells; assay type: cell-based; conditions: L-arginine in medium increased 4-fold (1 mM standard), all time points
Experimental: Naïve CD4^+ T cells were either analyzed directly after isolation or at different time points after activation with CD3 and CD28 antibodies. Cells were washed twice in 96-well plates with 75 mM ammonium carbonate at pH 7.4 and snap frozen in liquid nitrogen. Metabolites were extracted three times with hot (>70° C.) 70% ethanol. Extracts were analyzed by flow injection—time of flight mass spectrometry on an Agilent 6550 QTOF instrument operated in the negative mode, as described previously (Fuhrer et al., 2011). Typically 5,000-12,000 ions with distinct mass-to-charge (m/z) ratio could be identified in each batch of samples. Ions were putatively annotated by matching their measured mass to that of the compounds listed by the KEGG database for Homo sapiens, allowing a tolerance of 0.001 Da. Only deprotonated ions (without adducts) were considered in the analysis. In case of multiple matching, such as in the case of structural isomers, all candidates were retained.

[2] = system: human naïve CD4+ T cells; assay: Nitric oxide formation measured using DAF-FM diacetate; assay type: cell-based; conditions: L-arginine-supplemented medium vs normal medium
Experimental: FIG. 9. Impact of L-citrulline on metabolism, Related to FIG. 3. (A) Human naïve CD4^+ T cells were activated in normal medium or in L-Arg medium. Nitric oxide formation was measured using DAF-FM diacetate at different time points. (B) T cells were activated in control medium (Ctrl, containing 1 mM L-arginine), or in medium supplemented with 3 mM L-arginine (L-Arg) or 3 mM L-citrulline (L-Cit) and harvested at different time points. […] Shown are only metabolites with a log 2 fold change >1 and an adjusted p value of <0.05. n=6 from one donor. Log 2 fold change between 0 and >+2 for L-Orn, L-Arg and L-Cit exemplarily indicated as “high”.

[3] = system: 72 h-activated T cells; assay: Glucose consumption assay; assay type: cell-based, human; conditions: L-arginine supplementation, 24 h in fresh medium
Experimental: FIG. 3. L-arginine globally influences metabolism of activated human T cells. […] Shown are only metabolites with a Log 2 fc>1 and an adjusted p value of <0.05; n=12 from two donors. Log 2 fold change between 0 and >+2 for L-Orn and L-Arg exemplarily indicated as “high”. (B) Differential analysis of the glycolytic pathway between naïve CD4^+ T cells cultured in L-Arg medium or Ctrl medium, 96 h after activation. Log 2 fold changes of proteins and metabolites are color-coded. […] 3-P-Glycerate and 2-P-Glycerate could not be distinguished as they have the same mass. (C) 72 h-activated T cells were plated in fresh medium and glucose consumption was determined enzymatically after 24 h; n=9 from three donors. (D) Seahorse experiment performed with activated (96 h) T cells from one donor. Oligomycin was injected after 56 min, FCCP after 96 min, and antimycin (to inhibit the respiratory chain) after 136 min. Data are representative of 5 independent experiments with different donors. (E,F) Relative oxygen consumption rate (OCR) (E) and relative spare respiratory capacity (SRC) (F) of activated (96 h) T cells; n=12 from three donors. ****p<0.0001 (Student's t-test).
The amount of glucose in media was determined using the Glucose (GO) Assay Kit from Sigma. Consumption was calculated as the difference between glucose content in reference medium (co-incubated medium without cells) and cell supernatants.

[4] = system: activated (96 h) T cells; assay: Measurements of oxygen consumption rate (Seahorse); assay type: cell-based, human; conditions: medium supplemented with 3 mM L-arginine, 96 h activated
Experimental: Measurements were performed using a Seahorse XF-24 extracellular flux analyzer (Seahorse Bioscience). Naïve CD4^+ T cells were sorted and activated with plate-bound CD3 and CD28 antibodies in complete medium or medium supplemented with 3 mM L-arginine. Four days later (in the morning), cells were pooled, carefully count and plated (7×10^5 cells/well) in serum-free unbuffered RPMI-1640 medium (Sigma) onto Seahorse cell plates coated with Cell-Tak (BD Bioscience). The serum-free unbuffered medium was not supplemented with L-arginine. Oligomycin (1.4 μM, Sigma), Carbonyl cyanide-4-(trifluoromethoxy)phenylhydrazone (FCCP, 0.6 μM, Sigma) and antimycin (1.4 μM, Sigma) were injected.

[5] = system: activated CD8+ T cells; assay: IL-2 withdrawal assay and assessment of cell viability, CD8+ T cells; assay type: cell-based, human; conditions: L-arginine supplementation, 5 days after IL-2 withdrawal
[6] = system: T cell proteome; assay: Limited proteolysis and mass spectrometry (structural changes); assay type: binding, human
[7] = system: B16.OVA melanoma; assay: Tumor experiment: in vivo priming of T cells, oral L-arginine; set-up: species or system C57BL/6 mice; conditions: mice fed with L-arginine 1.5 mg/g body weight daily vs PBS
Experimental: B16-OVA melanoma cells were cultured and injected into Wt C57BL/6 mice as described above. Five clays post injection, when tumors were very small, mice were γ-irradiated (5 Gy) and 24 hours later they received 4×10^5 OT-I cells intravenously (i.v.). The clay after mice were immunized intraperitoneally (i.p.) with […] peptide (OVA257-264) in Inject Alum Adjuvant (Thermo Fisher Scientific). L-Arg (1.5 g/Kg body weight) or PBS, as control, was daily orally administrated, starting one clay before T cell transfer and until the end of the experiment. The size of tumors was measured in a blinded fashion using calipers.

N=C(N)NCCC[C@H](N)C(=O)O [L-arginine]
Intracellular arginine levels compared to controls [1]: 1.5-2.5 fold
Intracellular ornithine levels compared to controls [1]: 1.5-2.5 fold
nitric oxide [2]: did not increase
glucose consumption [3]: consumed less glucose
mitochondrial spare respiratory capacity (SRC) [4]: augmented
oxygen consumption increase [4]: 1.7 fold
survival of activated CD8+ T cells in the absence of exogenous cytokines [5]: significantly increased
protein domains affected by structural changes ([6]; 1 mM L-arginine): affect the PHD domain of BAZ1B and the AT-hook DNA-binding domain of PSIP1
number of proteins (out of 5,856 identified) with structural change exclusively in response to L-arginine ([6]; 1 mM, not affected by D-arginine or L-ornithine, six donors): 20
anti-tumor response of OT-I T cells primed in vivo [7]: superior in mediating an anti-tumor response
